Data: patent US4604380A, “C-23-substituted mycaminosyltylonolide compounds, pharmaceutical compositions and methods of use” (Eli Lilly and Company, priority 1985, dated 1986)
≈ marks a conversion by molar mass, not a printed value. Where “and” joins values, the source holds several entries; their conditions need not be identical. Identical values can stand only once. Like-named read-outs stand apart in the source and are kept apart here.

Assays:
[1] = test system: Streptococcus pyogenes; assay: ED50 vs Streptococcus pyogenes experimental infection in mice (Table VI); type: in vivo; settings: two doses, several values = results from more than one test; for ED50: po, read-out: ED50 Oral
Experimental: (§1) Certain formula 1a compounds have also shown in vivo antimicrobial activity against experimental bacterial infections. When two doses of test compound were administered to mice in experimental infections, the activity observed was measured as an ED50 value [effective dose in mg/kg to protect 50% of the test animals: see Warren Wick, et al., J. Bacteriol. 81, 233-235 (1961)].

[2] = test system: Pasteurella multocida; assay: Activity in Pasteurella multocida-infected one-day-old chicks (Table VIII); type: in vivo; settings: subcutaneous 30 mg/kg × 2, 1 and 4 hours post-challenge, all non-medicated chicks died within 24 hours
Experimental: Table VIII summarizes the results of tests in which illustrative compounds were evaluated against a Pasteurella infection in one-day-old chicks. The compounds were administered parenterally after challenge of the chicks with Pasteurella multocida (0.1 mL of a 10^-4 dilution of a twenty-hour tryptose broth culture of an avian P. multocida given subcutaneously). In these tests, all non-medicated infected chicks died within 24 hours of Pasteurella challenge. In the tests summarized in Table VIII, the compounds were administered by subcutaneous injection at a dosage of 30 mg/kg, 1 and 4 hours post-challenge of the chicks with P. multocida.

[3] = test system: Streptococcus pneumoniae Park I; assay: microbe, parasite or virus in culture; type: cell-based; settings: Streptococcus pneumoniae
Experimental: (§2) The MIC's s in Table III were determined by standard agar-dilution assays. The MIC's in Table IV were obtained using a conventional broth-dilution microtiter test.

[4] = test system: Streptococcous pneumoniae; assay: ED50 vs. Streptococcous pneumoniae experimental infection in mice (Table VII); type: in vivo; settings: Mus musculus, sc, subcutaneous, two doses, read-out: ED50 Subcutaneous
Experimental: as §1

[5] = test system: Staphylococcus aureus S13E; assay: MIC, standard agar-dilution assay (Table III); type: cell-based
Experimental: as §2

[6] = test system: Haemophilus influenzae C.L.; assay: MIC, standard agar-dilution assay (Table III); type: cell-based
Experimental: as §2

[7] = test system: Streptococcus Group D X66; assay: MIC, standard agar-dilution assay (Table III); type: cell-based
Experimental: as §2

[8] = test system: Streptococcus Group D 2041; assay: MIC, standard agar-dilution assay (Table III); type: cell-based; settings: GROUPD2041
Experimental: as §2

[9] = test system: Staphylococcus epidermidis EPI1; assay: MIC, standard agar-dilution assay (Table III); type: cell-based; settings: Staphylococcus epidermidis, EPI1
Experimental: as §2

[10] = test system: Staphylococcus aureus V41; assay: MIC, standard agar-dilution assay (Table III); type: cell-based; settings: Staphylococcus aureus V41, penicillin-resistant strain
Experimental: as §2

[11] = test system: Staphylococcus aureus X400; assay: MIC, standard agar-dilution assay (Table III); type: cell-based
Experimental: as §2

[12] = test system: Staphylococcus epidermidis 222; assay: MIC, standard agar-dilution assay (Table III); type: cell-based; settings: agar dilution; Staphylococcus epidermidis 222; read-out: MIC
Experimental: as §2

[13] = test system: Staphylococcus aureus X1.1; assay: MIC, standard agar-dilution assay (Table III); type: cell-based
Experimental: as §2

[14] = test system: Streptococcus pyogenes C203; assay: MIC, standard agar-dilution assay (Table III); type: cell-based; settings: agar dilution; Streptococcus pyogenes C203; read-out: MIC
Experimental: as §2

[15] = test system: Haemophilus influenzae 76; assay: MIC, standard agar-dilution assay (Table III); type: cell-based; settings: agar dilution; Haemophilus influenzae 76, ampicillin-resistant strain; read-out: MIC
Experimental: as §2

[16] = test system: Pasteurella hemolytica 41D; assay: MIC, conventional broth-dilution microtiter test (Table IV); type: cell-based
Experimental: as §2

[17] = test system: Pasteurella multocida 17E; assay: as above; type: cell-based
Experimental: as §2

[18] = test system: Mycoplasma gallisepticum 36H; assay: as above; type: cell-based; settings: Mycoplasmoides gallisepticum; broth-dilution microtiter; Mycoplasma gallisepticum 36H; read-out: MIC
Experimental: as §2

[19] = test system: Pasteurella multocida 68C; assay: as above; type: cell-based
Experimental: as §2

[20] = test system: Pasteurella hemolytica 23C; assay: as above; type: cell-based
Experimental: as §2

[21] = test system: Pasteurella hemolytica 22C; assay: as above; type: cell-based; settings: Pasteurella, 22C
Experimental: as §2

[22] = test system: Streptococcus sp. 19F; assay: as above; type: cell-based
Experimental: as §2

[23] = test system: Pasteurella multocida 40G; assay: as above; type: cell-based
Experimental: as §2

[24] = test system: Mycoplasma gallisepticum 29C; assay: as above; type: cell-based; settings: Mycoplasmoides gallisepticum, 29C
Experimental: as §2

[25] = test system: Mycoplasma hyopneumoniae S5972; assay: as above; type: cell-based; settings: Mesomycoplasma hyopneumoniae
Experimental: as §2

[26] = test system: Mycoplasma gallisepticum 15E; assay: as above; type: cell-based; settings: Mycoplasmoides gallisepticum; broth-dilution microtiter; Mycoplasma gallisepticum 15E; read-out: MIC
Experimental: as §2

[27] = test system: Pasteurella multocida 60A; assay: as above; type: cell-based
Experimental: as §2

[28] = test system: Mycoplasma hyorhinis 29E; assay: as above; type: cell-based; settings: broth-dilution microtiter; Mycoplasma hyorhinis 29E; read-out: MIC
Experimental: as §2

[29] = test system: Bordetella bronchisepticum 95B; assay: as above; type: cell-based
Experimental: as §2

[30] = test system: Pasteurella multocida 22A; assay: as above; type: cell-based
Experimental: as §2

[31] = test system: Staphylococcus aureus 19C; assay: as above; type: cell-based
Experimental: as §2

[32] = test system: Mycoplasma synoviae 40A; assay: as above; type: cell-based; settings: Mycoplasmopsis synoviae
Experimental: as §2

[33] = test system: Staphylococcus aureus; assay: ED50 vs. Staphylococcus aureus experimental infection in mice (Table V); type: in vivo; settings: sc, subcutaneous, two doses, dose protecting 50% of animals, read-out: ED50 Subcutaneous
Experimental: as §1

[34] = agar dilution, Haemophilus influenzae C.L., ampicillin-sensitive strain, read-out: MIC
[35] = broth-dilution microtiter, Pasteurella hemolytica 41D, read-out: MIC
[36] = broth-dilution microtiter, Pasteurella multocida 17E, bovine isolate, read-out: MIC
[37] = broth-dilution microtiter, Pasteurella multocida 68C, read-out: MIC
[38] = broth-dilution microtiter, Pasteurella hemolytica 23C, read-out: MIC
[39] = broth-dilution microtiter, Pasteurella multocida 40G, read-out: MIC
[40] = broth-dilution microtiter, Mycoplasma hyopneumoniae S5972, read-out: MIC
[41] = broth-dilution microtiter, Pasteurella multocida 60A, avian isolate, read-out: MIC
[42] = broth-dilution microtiter, Pasteurella multocida 22A, read-out: MIC
[43] = broth-dilution microtiter, Staphylococcus aureus 19C, read-out: MIC

Compound | ED50 [1] [mg/kg] | Number of Deaths/Number Treated [2] | MIC [3] [µg/mL] | ED50 [4] [mg/kg] | MIC [5] [µg/mL] | MIC [6, 34] [µg/mL] | MIC [7] [µg/mL] | MIC [9] [µg/mL] | MIC [10] [µg/mL] | MIC [12] [µg/mL] | MIC [13] [µg/mL] | MIC [14] [µg/mL] | MIC [15] [µg/mL] | MIC [18] [µg/mL] | MIC [21] [µg/mL] | MIC [22] [µg/mL] | MIC [24] [µg/mL] | MIC [26] [µg/mL] | MIC [29] [µg/mL] | ED50 [33] [mg/kg] | further results
CCC1OC(=O)CC(O)C(C)C(OC2OC(C)C(O)C(N(C)C)C2O)C(CC=O)CC(C)C(=O)C=CC(C)=CC1CN1CCCC2CCCCC21 (stereo not drawn) [Compound 20, 23-deoxy-23-(decahydroquinolin-1-yl)-OMT] | 77 | 6/10 and 8/10 | 0.03 (≈ 0.0417 µM) | 5 | 0.25 (≈ 0.348 µM) | 1 (≈ 1.39 µM) | 0.25 (≈ 0.348 µM) | 0.25 (≈ 0.348 µM) | 0.25 (≈ 0.348 µM) | 0.125 (≈ 0.174 µM) | 0.25 (≈ 0.348 µM) | 0.125 (≈ 0.174 µM) | 1 (≈ 1.39 µM) | 0.78 (≈ 1.08 µM) | 3.12 (≈ 4.34 µM) | < 0.048 | > 0.048 | 0.39 (≈ 0.542 µM) | 6.25 (≈ 8.69 µM) | 10 | MIC [8]: 0.25 µg/mL (≈ 0.348 µM); MIC ([11]; agar dilution, Staphylococcus aureus X400, methicillin-resistant strain, read-out: MIC): 0.5 µg/mL (≈ 0.695 µM); MIC [16, 35]: 1.56 µg/mL (≈ 2.17 µM); MIC [17, 36]: 0.78 µg/mL (≈ 1.08 µM); MIC [19, 37]: 0.78 µg/mL (≈ 1.08 µM); MIC [20, 38]: 0.78 µg/mL (≈ 1.08 µM); MIC [23, 39]: 0.39 µg/mL (≈ 0.542 µM); MIC [25, 40]: < 0.024 µg/mL; MIC [27, 41]: 0.78 µg/mL (≈ 1.08 µM); MIC [28]: 0.39 µg/mL (≈ 0.542 µM); MIC [30, 42]: 0.78 µg/mL (≈ 1.08 µM); MIC [31, 43]: 1.56 µg/mL (≈ 2.17 µM); MIC ([32]; 40A): < 0.048 µg/mL
CCC1OC(=O)CC(O)C(C)C(OC2OC(C)C(O)C(N(C)C)C2O)C(CC=O)CC(C)C(=O)C=CC(C)=CC1CN1CCCC12CCCCC2 (stereo not drawn) [Compound 31, 23-deoxy-23-(1-azaspiro[4.5]decan-1-yl)-OMT] | 59.5 | 0/10 and 3/10 | 0.03 (≈ 0.0417 µM) | 9.22 | 0.5 (≈ 0.695 µM) | 2 (≈ 2.78 µM) |  | 0.5 (≈ 0.695 µM) | 0.5 (≈ 0.695 µM) | 0.25 (≈ 0.348 µM) | 0.5 (≈ 0.695 µM) | 0.125 (≈ 0.174 µM) | 2 (≈ 2.78 µM) | 50 (≈ 69.5 µM) | 0.78 (≈ 1.08 µM) | < 0.048 | 0.097 (≈ 0.135 µM) | 50 (≈ 69.5 µM) | 6.25 (≈ 8.69 µM) | 2.15 | MIC ([7]; agar dilution, Streptococcus Group D X66, read-out: MIC): 0.25 µg/mL (≈ 0.348 µM); MIC ([8]; agar dilution, Streptococcus Group D 2041, read-out: MIC): 0.25 µg/mL (≈ 0.348 µM); MIC ([11]; Staphylococcus aureus, X400): 0.5 µg/mL (≈ 0.695 µM); MIC [16, 35]: 0.39 µg/mL (≈ 0.542 µM); MIC [17, 36]: 0.39 µg/mL (≈ 0.542 µM); MIC [19, 37]: 0.39 µg/mL (≈ 0.542 µM); MIC [20, 38]: 0.39 µg/mL (≈ 0.542 µM); MIC [23, 39]: 0.195 µg/mL (≈ 0.271 µM); MIC ([25]; S5972): 0.097 µg/mL (≈ 0.135 µM); MIC [27, 41]: 0.39 µg/mL (≈ 0.542 µM); MIC [30, 42]: 0.39 µg/mL (≈ 0.542 µM); MIC [31, 43]: 0.39 µg/mL (≈ 0.542 µM); MIC ([32]; broth-dilution microtiter, Mycoplasma synoviae 40A, read-out: MIC): 0.195 µg/mL (≈ 0.271 µM)
CCC1OC(=O)CC(O)C(C)C(OC2OC(C)C(O)C(N(C)C)C2O)C(CC=O)CC(C)C(=O)C=CC(C)=CC1CNC12CC3CC(CC(C3)C1)C2 (stereo not drawn) [Compound 1, 23-deoxy-23-(1-adamantanylamino)-OMT] | > 100 | 0/10 |  | 2.5 | 0.5 (≈ 0.684 µM) |  | 0.5 (≈ 0.684 µM) | 0.5 (≈ 0.684 µM) | 0.5 (≈ 0.684 µM) | 0.125 (≈ 0.171 µM) | 0.5 (≈ 0.684 µM) | 0.125 (≈ 0.171 µM) | 0.5 (≈ 0.684 µM) | 6.25 (≈ 8.55 µM) | 3.12 (≈ 4.27 µM) | < 0.048 | 0.097 (≈ 0.133 µM) | 6.25 (≈ 8.55 µM) | 6.25 (≈ 8.55 µM) | 3.58 | ED50 Oral ([1]; oral): 81.8 mg/kg × 2; MIC ([3]; read-out: MIC): 0.06 µg/mL (≈ 0.0821 µM); MIC ([6]; Haemophilus influenzae): 2 µg/mL (≈ 2.74 µM); MIC [8]: 0.5 µg/mL (≈ 0.684 µM); MIC ([11]; Staphylococcus aureus, X400): 0.5 µg/mL (≈ 0.684 µM); MIC ([16]; Pasteurella, 41D): 1.56 µg/mL (≈ 2.13 µM); MIC ([17]; Pasteurella multocida, 17E): 0.78 µg/mL (≈ 1.07 µM); MIC ([19]; Pasteurella multocida, 68C): 0.78 µg/mL (≈ 1.07 µM); MIC ([20]; Pasteurella, 23C): 1.56 µg/mL (≈ 2.13 µM); MIC ([23]; Pasteurella multocida, 40G): 0.78 µg/mL (≈ 1.07 µM); MIC [25, 40]: < 0.024 µg/mL; MIC ([27]; Pasteurella multocida, 60A): 0.78 µg/mL (≈ 1.07 µM); MIC [28]: 0.39 µg/mL (≈ 0.534 µM); MIC ([30]; Pasteurella multocida, 22A): 0.78 µg/mL (≈ 1.07 µM); MIC ([31]; Staphylococcus aureus, 19C): 0.78 µg/mL (≈ 1.07 µM); MIC ([32]; 40A): < 0.048 µg/mL
